Legend:
[1] = biological target: urokinase (Homo sapiens, UniProt P00749); test: Inhibitory effects on urokinase (hydrolysis of N-acetylglycyl lysine methyl ester); format: biochemical; conditions: 37° C., 10 minutes; concentration not given
Procedure: The compounds of the formula (I) have excellent inhibitory effects on protease. The inhibitory effects were determined by the following methods: Inhibitory effects of the compounds on urokinase were determined according to the method described by A. J. Joeson et al (Throm. […]. 21, 259-272 (1969)). In particular, inhibitory effects of the compounds on hydrolysis of N-acetylglycyl lysine methyl ester by urokinase were determined (incubated at 37° C. for 10 minutes).

[2] = biological target: T1, trypsin (Bos taurus, UniProt P00760); test: Inhibitory effects on trypsin (hydrolysis of p-tosylarginine methyl ester); format: biochemical; conditions: 37° C., 10 minutes; concentration not given
T1 sequence (P00760 24-246): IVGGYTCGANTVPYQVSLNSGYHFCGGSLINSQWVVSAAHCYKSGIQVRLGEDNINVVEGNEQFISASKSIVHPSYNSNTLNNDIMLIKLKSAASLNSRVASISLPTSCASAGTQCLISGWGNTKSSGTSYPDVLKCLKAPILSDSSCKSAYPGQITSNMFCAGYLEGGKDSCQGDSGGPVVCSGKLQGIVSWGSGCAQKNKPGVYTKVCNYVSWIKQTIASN
Procedure: In particular, inhibitory effects of the compounds on hydrolysis of p-tosylarginine methyl ester by trypsin were examined (incubated at 37° C. for 10 minutes).

[3] = system: cysteamine-induced duodenal ulcers; test: Duodenal ulcers (cysteamine-induced); format: in vivo, Female Sprague-Dawley strain rats
Procedure: Female Sprague-Dawley strain rats, weighing about 200 g were deprived of food for 24 hours prior to experiment. Cysteamine 400 mg/kg was given subcutaneously once to the rats. The animals were provided food and libitum from the 7 hours later. The test drug was given orally as aqueous suspension after 7 hours, the administration of cysteamine, then daily×4. On the next morning of the last administration, the animals were sacrificed under ether anesthesia. The ulcer area (mm^2) was measured and described as ulcer index.

[4] = system: gastric secretion; test: Influence to the gastric secretion (pylorus ligation); format: in vivo, Male Sprague-Dawley strain rats
Procedure: Male Sprague-Dawley strain rats, weighing 160-180 g were deprived of food but allowed free access to water for 20 hours prior to experiment. […] The test drug was given intraperitoneally immediately after pylorus ligation. The rats were sacrificed 3, 6 and 12 hours later and the stomachs removed. The gastric juice was collected and analyzed for volume. Then the gastric juice was centrifuged at 1300 g for 10 minutes at room temperature to give the supernatant. The total acidity and peptic activity of the supernatant were determined. Total acidity was determined by titrating with 0.01 N NaOH. […] Total acidity is shown as the titration volume (ml) and peptic activity is shown as the corresponding weight (mg) to crystal pepsin.

[5] = biological target: chymotrypsin (Bos taurus, UniProt P00766); test: Inhibitory effects on chymotrypsin (hydrolysis of N-acetyl-L-tyrosine ethyl ester); format: biochemical; conditions: 37° C., 10 minutes; concentration not given
Procedure: The compounds of the formula (I) have excellent inhibitory effects on protease. The inhibitory effects were determined by the following methods: Inhibitory effects on the compounds of chymotrypsin were determined according to the method described by M. […] In particular, inhibitory effects of the compounds on hydrolysis of N-acetyl-L-tyrosine ethyl ester by chymotrypsin were examined (incubated at 37° C. for 10 minutes).

[6] = biological target: thrombin (Bos taurus, UniProt P00735); test: Inhibitory effects on thrombin (hydrolysis of p-tosylarginine methyl ester); format: biochemical; conditions: 37° C., 10 minutes; concentration not given
Procedure: The compounds of the formula (I) have excellent inhibitory effects on protease. The inhibitory effects were determined by the following methods:
Inhibitory effects of the compounds on thrombin were determined according to the method described by M. Muramatsu et al (The Journal of Biochemistry, Volume 65 (1), 17 (1969)). In particular, inhibitory effects of the compounds on hydrolysis of p-tosylarginine methyl ester by thrombin were examined (incubated at 37° C. for 10 minutes).

N=C(N)NC[C@H]1CC[C@H](C(=O)Oc2ccccc2C(=O)OCc2ccccc2)CC1 [Compound 1]
Inhibition (%) Urokinase [1]: 32%
Inhibition (%) Trypsin [2]: 79%
Inhibition (%) ([3]; 250 mg/kg orally): 72.1%
Ulcer Index (mm^2) ([3]; 250 mg/kg orally): 22.5 ± 3.9 mm^2
Inhibition (%) ([3]; 500 mg/kg orally): 85.5%
Ulcer Index (mm^2) ([3]; 500 mg/kg orally): 11.7 ± 3.6 mm^2
Gastric Contents Volume ([4]; 3 hours, 75 mg/kg i.p.): 2.6 ± 0.4 mL
Gastric Contents Volume % change ([4]; 3 hours, 75 mg/kg i.p.): 10.3%
Titratable Acid Output ([4]; 3 hours, 75 mg/kg i.p.): 39.2 ± 11.6 μEg
Titratable Acid Output % change ([4]; 3 hours, 75 mg/kg i.p.): 52.5%
Titratable Pepsin Output ([4]; 3 hours, 75 mg/kg i.p.): 5.7 ± 1.5 mg
Titratable Pepsin Output % change ([4]; 3 hours, 75 mg/kg i.p.): 1.7%
Gastric Contents Volume ([4]; 3 hours, 150 mg/kg i.p.): 0.7 ± 0.3 mL
Gastric Contents Volume % change ([4]; 3 hours, 150 mg/kg i.p.): 75.9%
Titratable Acid Output ([4]; 3 hours, 150 mg/kg i.p.): 9.8 ± 3.3 μEg
Titratable Acid Output % change ([4]; 3 hours, 150 mg/kg i.p.): 88.1%
Titratable Pepsin Output ([4]; 3 hours, 150 mg/kg i.p.): 1.4 ± 0.7 mg
Titratable Pepsin Output % change ([4]; 3 hours, 150 mg/kg i.p.): 75.9%
Gastric Contents Volume ([4]; 3 hours, 300 mg/kg i.p.): 0.5 ± 0.2 mL
Gastric Contents Volume % change ([4]; 3 hours, 300 mg/kg i.p.): 82.8%
Titratable Acid Output ([4]; 3 hours, 300 mg/kg i.p.): 4.6 ± 3.3 μEg
Titratable Acid Output % change ([4]; 3 hours, 300 mg/kg i.p.): 94.4%
Titratable Pepsin Output ([4]; 3 hours, 300 mg/kg i.p.): 0.9 ± 0.6 mg
Titratable Pepsin Output % change ([4]; 3 hours, 300 mg/kg i.p.): 84.5%
Gastric Contents Volume ([4]; 6 hours, 75 mg/kg i.p.): 4.2 ± 0.6 mL
Gastric Contents Volume % change ([4]; 6 hours, 75 mg/kg i.p.): 31.1%
Titratable Acid Output ([4]; 6 hours, 75 mg/kg i.p.): 259.8 ± 61.8 μEq
Titratable Acid Output % change ([4]; 6 hours, 75 mg/kg i.p.): 32.0%
Titratable Pepsin Output ([4]; 6 hours, 75 mg/kg i.p.): 13.9 ± 3.0 mg
Titratable Pepsin Output % change ([4]; 6 hours, 75 mg/kg i.p.): 35.9%
Gastric Contents Volume ([4]; 6 hours, 150 mg/kg i.p.): 1.5 ± 0.3 mL
Gastric Contents Volume % change ([4]; 6 hours, 150 mg/kg i.p.): 75.4%
Titratable Acid Output ([4]; 6 hours, 150 mg/kg i.p.): 85.3 ± 49.4 μEq
Titratable Acid Output % change ([4]; 6 hours, 150 mg/kg i.p.): 77.7%
Titratable Pepsin Output ([4]; 6 hours, 150 mg/kg i.p.): 4.7 ± 1.1 mg
Titratable Pepsin Output % change ([4]; 6 hours, 150 mg/kg i.p.): 78.3%
Gastric Contents Volume ([4]; 6 hours, 300 mg/kg i.p.): 1.5 ± 0.3 mL
Gastric Contents Volume % change ([4]; 6 hours, 300 mg/kg i.p.): 75.4%
Titratable Acid Output ([4]; 6 hours, 300 mg/kg i.p.): 70.4 ± 30.4 μEq
Titratable Acid Output % change ([4]; 6 hours, 300 mg/kg i.p.): 81.6%
Titratable Pepsin Output ([4]; 6 hours, 300 mg/kg i.p.): 3.5 ± 1.4 mg
Titratable Pepsin Output % change ([4]; 6 hours, 300 mg/kg i.p.): 83.9%
Gastric Contents Volume ([4]; 12 hours, 75 mg/kg i.p.): 5.2 ± 2.1 mL
Gastric Contents Volume % change ([4]; 12 hours, 75 mg/kg i.p.): 61.5%
Titratable Acid Output ([4]; 12 hours, 75 mg/kg i.p.): 394.6 ± 136.5 μEq
Titratable Acid Output % change ([4]; 12 hours, 75 mg/kg i.p.): 51.9%
Titratable Pepsin Output ([4]; 12 hours, 75 mg/kg i.p.): 27.3 ± 8.6 mg
Titratable Pepsin Output % change ([4]; 12 hours, 75 mg/kg i.p.): 52.9%
Gastric Contents Volume ([4]; 12 hours, 150 mg/kg i.p.): 6.3 ± 0.9 mL
Gastric Contents Volume % change ([4]; 12 hours, 150 mg/kg i.p.): 53.3%
Titratable Acid Output ([4]; 12 hours, 150 mg/kg i.p.): 387.3 ± 79.3 μEq
Titratable Acid Output % change ([4]; 12 hours, 150 mg/kg i.p.): 52.8%
Titratable Pepsin Output ([4]; 12 hours, 150 mg/kg i.p.): 24.0 ± 4.2 mg
Titratable Pepsin Output % change ([4]; 12 hours, 150 mg/kg i.p.): 58.6%
Gastric Contents Volume ([4]; 12 hours, 300 mg/kg i.p.): 3.6 ± 0.6 mL
Gastric Contents Volume % change ([4]; 12 hours, 300 mg/kg i.p.): 73.3%
Titratable Acid Output ([4]; 12 hours, 300 mg/kg i.p.): 258.4 ± 66.9 μEq
Titratable Acid Output % change ([4]; 12 hours, 300 mg/kg i.p.): 68.5%
Titratable Pepsin Output ([4]; 12 hours, 300 mg/kg i.p.): 14.0 ± 2.4 mg
Titratable Pepsin Output % change ([4]; 12 hours, 300 mg/kg i.p.): 75.9%
Inhibition (%) Chymotrypsin [5]: 100%
Inhibition (%) Thrombin [6]: 37%
